Some test systems named below: DMS-114; HOP-18; KM-20L2; LXFL 529; RXF 631; SNB-78; XF498; DLD-1; DMS-273.
Common to all, as to assay: NCI anticancer screen, dose series, 48 h

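Dose response: 5 concentrations. Exposure: 48 h. Format: 96-well plates. Endpoint: linear interpolation; highest concentration if not reached. Here, GI50 denotes the concentration required for 50% inhibition of growth.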 Calls of active or inactive are those of the source. Cut-off read from the data, not from the text of the source: active = GI50 up to about 1.1 µM and inactive = higher.

Turning to `NC(=O)c1ncn(C2OC(CO)C(O)C2O)c1O` (configuration not stated), the GI50 in the assay on DMS-114 was > 100 µM (inactive); in the assay on HOP-18 it was 53.7 µM (inactive); in the assay with KM-20L2 it was 34.8 µM (inactive); in the assay with LXFL 529 it was > 100 µM (inactive); with RXF 631 it was > 100 µM (inactive); in the assay on SNB-78 it was > 100 µM (inactive). For the same compound, the GI50 with XF498 was > 100 µM (inactive).

Turning to `CCN(CC)C(=S)N/N=C(\C)c1ccccc1O`, the GI50 in the assay with DLD-1 was 17.8 µM (inactive); in the assay on DMS-114, 11.9 µM (inactive); with DMS-273 it was 12.9 µM (inactive); with HOP-18 it was 26.2 µM (inactive); in the assay on KM-20L2, 21.4 µM (inactive); in the assay with LXFL 529 it was 13.5 µM (inactive). Further, the GI50 in the assay with RXF 631 is 35.2 µM (inactive); in the assay with SNB-78, > 100 µM (inactive).

Take `Cn1cnc2[nH]c(=O)[nH]c(=S)c21`: the GI50 with DLD-1, with DMS-114, in the assay on DMS-273, in the assay with HOP-18, in the assay with KM-20L2 and with LXFL 529 was > 100 µM (inactive) each time. Moreover, the GI50 with RXF 631, with SNB-78 and in the assay on XF498 was > 100 µM (inactive) in each case.

In the case of `Nc1ccc(C(=O)N/C(=C\C=C\c2ccco2)c2nc3c4c(ccc3[nH]2)C(=O)c2ccccc2C4=O)cc1`, the GI50 with DLD-1 is 13.3 µM (inactive); in the assay on DMS-114 it was 18.5 µM (inactive); with DMS-273, 29.5 µM (inactive); in the assay with HOP-18, 11.4 µM (inactive); in the assay on KM-20L2, 55.6 µM (inactive); with LXFL 529, 49.1 µM (inactive). For the same compound, the results for the GI50 in the assay on RXF 631, in the assay with SNB-78 and in the assay with XF498 were 32.8 µM (inactive), 64.6 µM (inactive) and > 100 µM (inactive), respectively.

Take `CCCCCCCCCCCCOC(=N)N1CCOCC1`: the GI50 in the assay with DLD-1 is 3.3 µM (inactive); in the assay on DMS-114 it was 6.7 µM (inactive); in the assay with DMS-273 it was 9.55 µM (inactive); in the assay on HOP-18, 2 µM (inactive); in the assay with KM-20L2, 3.43 µM (inactive); in the assay on LXFL 529, 4.06 µM (inactive). Moreover, the GI50 in the assay with RXF 631 is 8.18 µM (inactive); in the assay with SNB-78, 6.59 µM (inactive); in the assay with XF498, 13.3 µM (inactive).

As for `O=C1C(c2ccccc2)=C(c2ccccc2)C(c2ccc(Cc3ccc(C4=C(c5ccccc5)C(=O)C(c5ccccc5)=C4c4ccccc4)cc3)cc2)=C1c1ccccc1`, the GI50 in the assay on DLD-1, in the assay on DMS-114, with DMS-273, with HOP-18, with KM-20L2 and with SNB-78 was > 100 µM (inactive) in each case. In addition, the GI50 with XF498 was > 100 µM (inactive).

Consider `NC(CCCCN/C=C1/N=C(c2ccccc2)OC1=O)C(=O)O` (configuration not stated), for which the GI50 in the assay on DLD-1, in the assay on DMS-114, in the assay with DMS-273, with KM-20L2, with LXFL 529 and in the assay with SNB-78 was > 100 µM (inactive) in each case. Further, in the assay with XF498, the GI50 is > 100 µM (inactive).

As for `CC(C)c1cccc(C(C)C)c1NC(=O)C(=O)Cc1nc2ccc([N+](=O)[O-])cc2nc1O`, the GI50 was > 100 µM (inactive) in the assay on DLD-1; 10.5 µM (inactive) with DMS-114; 44.4 µM (inactive) in the assay on DMS-273; > 100 µM (inactive) in the assay with HOP-18; 20.1 µM (inactive) with KM-20L2; 28.2 µM (inactive) in the assay on LXFL 529. Moreover, in the assay on RXF 631, the GI50 was 40.8 µM (inactive).

For the compound `C/C(=N\NC(=N)N)C(CN(CC(C)C)CC(C)C)C(=O)Nc1ccc(C)cc1C` (configuration not stated), the GI50 in the assay with DLD-1, with DMS-114, in the assay on DMS-273, in the assay on HOP-18, in the assay on KM-20L2 and with LXFL 529 was > 100 µM (inactive) throughout. The GI50 in the assay on RXF 631 was > 100 µM (inactive); in the assay with SNB-78, > 100 µM (inactive); in the assay with XF498 it was 59.6 µM (inactive).

Regarding `Cc1ccc2nc3c(C)cc(=O)cc-3sc2c1`, the GI50 in the assay with DLD-1 was 30.3 µM (inactive); with DMS-114, 17.5 µM (inactive); with DMS-273, 27.9 µM (inactive); in the assay on HOP-18, 56.6 µM (inactive); in the assay with KM-20L2, 43.5 µM (inactive); in the assay with LXFL 529, 17.9 µM (inactive). Moreover, the GI50 in the assay on RXF 631 was 31.2 µM (inactive); in the assay on SNB-78, 32.5 µM (inactive).

Consider `COC(=O)NC(=O)c1cn(C2OC(CO)C(O)C2O)c(=O)[nH]c1=O` (configuration not stated), for which the GI50 with DLD-1, in the assay with KM-20L2, with LXFL 529 and in the assay on SNB-78 was > 100 µM (inactive) each time.

As for `CN(C)CCNC(=O)c1c2ccccc2cc2ccccc12`, the GI50 with DLD-1 is 41.8 µM (inactive); with DMS-114, 53.1 µM (inactive); in the assay on DMS-273, 33 µM (inactive); in the assay on HOP-18, > 100 µM (inactive); in the assay on KM-20L2 it was 37.7 µM (inactive); in the assay on LXFL 529, 26.2 µM (inactive). Further, the GI50 in the assay with SNB-78 is 55.3 µM (inactive); in the assay with XF498, 19.5 µM (inactive).

Regarding `NNC(=O)C(=O)N/N=C(\CCC(=O)Nc1ccc(Cl)cc1)Cc1nc2ccccc2s1`, the GI50 was 19.1 µM (inactive) in the assay with DMS-114; 15.5 µM (inactive) with DMS-273; 5.33 µM (inactive) in the assay on HOP-18; 45.5 µM (inactive) in the assay with KM-20L2; 26.4 µM (inactive) in the assay with LXFL 529; 70.5 µM (inactive) with SNB-78.

As for `O=C(N/C(=C\c1ccc([N+](=O)[O-])cc1)c1nc2c(O)nc(S)nc2[nH]1)c1ccccc1`, the GI50 with DLD-1 is 53.7 µM (inactive); in the assay with DMS-114 it was 77.3 µM (inactive); in the assay with KM-20L2, > 100 µM (inactive); in the assay on LXFL 529, 65.2 µM (inactive); with SNB-78, > 100 µM (inactive); in the assay with XF498, > 100 µM (inactive).

Consider `O=C1CCCC2=C(N1)C(=O)C=CC2=O`, for which the GI50 in the assay on DLD-1 was > 53.2 µM (inactive); in the assay on DMS-114, > 41.7 µM (inactive); with DMS-273, > 100 µM (inactive); in the assay on HOP-18 it was > 100 µM (inactive); in the assay on KM-20L2, > 100 µM (inactive); with LXFL 529 it was > 58.7 µM (inactive). The GI50 in the assay on RXF 631, in the assay on SNB-78 and in the assay on XF498 was > 100 µM (inactive) each time.

Regarding `c1ccc(C2=NN(c3ccccc3)C3(S2)SC(c2ccccc2)(c2ccccc2)c2ccccc23)cc1` (configuration not stated), the GI50 in the assay with DLD-1, with DMS-114, in the assay with DMS-273, in the assay on KM-20L2, in the assay with LXFL 529 and with SNB-78 was > 100 µM (inactive) throughout. For the same compound, the GI50 with XF498 was > 100 µM (inactive).

Turning to `CC(=O)NNc1nc(C)c(C(=O)/C=C/c2ccccc2Cl)s1`, the GI50 in the assay with DLD-1, in the assay with DMS-114, in the assay with DMS-273, in the assay with HOP-18, in the assay with KM-20L2 and in the assay with RXF 631 was > 100 µM (inactive) throughout. Moreover, in the assay with SNB-78, the GI50 was > 100 µM (inactive).

For the compound `OCCN(CCO)c1cccc(N(CCO)CCO)c1`, the GI50 with DLD-1 is > 100 µM (inactive); with DMS-114 it was > 100 µM (inactive); in the assay on DMS-273, > 100 µM (inactive); in the assay with KM-20L2 it was 38.5 µM (inactive); in the assay with LXFL 529, > 100 µM (inactive); in the assay on RXF 631, > 100 µM (inactive). The GI50 with SNB-78 and with XF498 was > 100 µM (inactive) each time.

On to `O=c1c2ccccc2c(=O)n2n1-c1cccc(c1)CSSCc1cccc-2c1`, for which the GI50 was > 10 µM (inactive) in the assay with DLD-1; > 10 µM (inactive) with DMS-114; > 10 µM (inactive) in the assay on DMS-273; > 10 µM (inactive) in the assay with HOP-18; > 100 µM (inactive) in the assay on KM-20L2; > 10 µM (inactive) in the assay on LXFL 529. Moreover, the GI50 is > 10 µM (inactive) with RXF 631, 62.1 µM (inactive) in the assay on SNB-78 and 62.2 µM (inactive) with XF498.

For `O=C(CC1C(=O)Nc2ccccc2[S+]1[O-])Nc1ccc(Cl)cc1` (configuration not stated), the GI50 with DLD-1 was > 100 µM (inactive); with DMS-273 it was > 100 µM (inactive); with KM-20L2, > 100 µM (inactive); with LXFL 529, 91.8 µM (inactive); in the assay with SNB-78, 53.7 µM (inactive).

In the case of `COc1cc(C2c3cc4c(cc3[C@@H](Nc3ccc([N+](=O)[O-])cc3)C3COC(=O)[C@H]23)OCO4)cc(OC)c1O` (some centres not stated), the GI50 in the assay on DMS-114 was 1.52 µM (inactive); with DMS-273, 0.555 µM (active); in the assay with HOP-18 it was 11.2 µM (inactive); in the assay with KM-20L2 it was 2.12 µM (inactive); in the assay with LXFL 529, 6.4 µM (inactive); with RXF 631, 1.6 µM (inactive). Further, the GI50 in the assay on SNB-78 was 5.68 µM (inactive); in the assay on XF498 it was 2.07 µM (inactive).

For the origin of these results see ChEMBL document CHEMBL1201862, “PubChem BioAssay data set” (2004).
